Reference: paper PMC6573034 (Nature Communications, 2019)

Columns and labels:
SfMCT R256D = target: T1, SfMCT R256D (Syntrophobacter fumaroxidans, UniProt A0LNN5, R256D); test: [14C]L-lactate in vivo uptake assay, mutant R256D; type: cell-based; conditions: R256D versus WT
T1 construct: expressed in transfected cells; host or cells: E. coli JA202 (MC4100 glcA::cat lldP::kan), plasmid pEXT20-SfMCT-3C-10His
Method: The cultures were grown at 37 °C and 180 r.p.m. in an incubator shaker (Multitron, Infors HT). Protein expression was induced at OD600 ~0.5 by addition of IPTG to a final concentration of 0.25 mM. After 4 h, bacteria were pelleted (5,200 × g, 10 min, room temperature) and resuspended in uptake buffer (20 mM Bis-Tris propane-HCl (pH 6.7), 250 mM KCl) to a bacteria density of OD600 12. […] Furthermore, [3-3 H] propionic acid sodium salt ([^3H]propionate, American Radiolabeled Chemicals, specific activity 30 Ci/mmol), n-[2,3-3 H] butyric acid sodium salt ([^3H]butyrate, American Radiolabeled Chemicals, specific activity 120 Ci/mmol), and [1–14 C] pyruvic acid sodium salt ([^14C]pyruvate, specific activity 0.055 Ci/mmol American Radiolabeled Chemicals) were also used for transport experiments. […] Cpm values of each experiment were normalized with respect to the determined upper plateau value, i.e., the fitted upper plateau value corresponds to 100%. The arithmetic average of three independent experiments was calculated. […] His-tagged transporters were detected using an anti-His5 (Qiagen, catalogue number 34660, primary antibody) at a dilution of 1:3,000 and a goat anti-mouse IgG (H + L) HRP conjugate antibody (Biorad, catalogue number 172-1011, secondary antibody) at a dilution of 1:2,500.

MCT4 (SLC16A3) = conditions: MCT4, L-lactate; cited from earlier work
SfMCT = target: T2, SfMCT (Syntrophobacter fumaroxidans, UniProt A0LNN5); test: Uptake of [14C]L-lactate and other radiolabeled monocarboxylates into SfMCT expressing E. coli JA202; type: cell-based; conditions: for Net uptake of [14C]L-lactate through SfMCT (cpm): SfMCT minus vector
T2 construct: expressed in transfected cells; host or cells: E. coli JA202 (MC4100 glcA::cat lldP::kan), plasmid pEXT20-SfMCT-3C-10His
T2 sequence (A0LNN5 1-412): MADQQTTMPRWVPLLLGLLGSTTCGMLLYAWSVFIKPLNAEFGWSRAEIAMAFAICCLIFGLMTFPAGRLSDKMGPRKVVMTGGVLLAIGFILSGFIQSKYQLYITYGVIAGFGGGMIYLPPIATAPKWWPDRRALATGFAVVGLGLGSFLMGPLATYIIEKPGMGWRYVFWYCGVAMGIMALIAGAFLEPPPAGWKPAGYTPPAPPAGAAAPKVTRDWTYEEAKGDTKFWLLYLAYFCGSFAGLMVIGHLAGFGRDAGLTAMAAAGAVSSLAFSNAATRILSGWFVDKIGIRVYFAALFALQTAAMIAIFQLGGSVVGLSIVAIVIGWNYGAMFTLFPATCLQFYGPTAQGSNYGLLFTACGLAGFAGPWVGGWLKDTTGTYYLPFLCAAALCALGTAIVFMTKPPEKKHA

T1 sequence (A0LNN5 whole entry R256D): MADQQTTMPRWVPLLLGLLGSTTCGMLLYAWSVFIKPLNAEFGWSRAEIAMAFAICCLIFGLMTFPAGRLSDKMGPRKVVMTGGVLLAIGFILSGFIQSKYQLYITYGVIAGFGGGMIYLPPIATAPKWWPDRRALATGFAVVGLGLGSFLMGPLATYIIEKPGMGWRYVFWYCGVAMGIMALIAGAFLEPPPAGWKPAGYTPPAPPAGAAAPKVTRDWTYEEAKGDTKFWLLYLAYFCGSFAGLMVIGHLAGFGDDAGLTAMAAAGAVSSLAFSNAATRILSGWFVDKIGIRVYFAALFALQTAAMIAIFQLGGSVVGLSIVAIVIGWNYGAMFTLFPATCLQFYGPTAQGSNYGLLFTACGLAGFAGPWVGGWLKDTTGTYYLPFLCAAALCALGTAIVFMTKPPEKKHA

C[C@H](O)C(=O)O [L-lactate]
increase of [14C]L-lactate transport (SfMCT R256D): ~ 2.5 fold
Km (MCT4 (SLC16A3)): 20 to 35 mM
Uptake of [14C]L-lactate by SfMCT (cpm) (SfMCT; Time 5 min): 1353.33 cpm
Net uptake of [14C]L-lactate through SfMCT (cpm) (SfMCT; Time 5 min): 969 cpm
Uptake of [14C]L-lactate by SfMCT (cpm) (SfMCT; Time 10 min): 2978.67 cpm
Net uptake of [14C]L-lactate through SfMCT (cpm) (SfMCT; Time 10 min): 2373.33 cpm
Uptake of [14C]L-lactate by SfMCT (cpm) (SfMCT; Time 20 min): 6015 cpm
Net uptake of [14C]L-lactate through SfMCT (cpm) (SfMCT; Time 20 min): 4812 cpm
Uptake of [14C]L-lactate by SfMCT (cpm) (SfMCT; Time 40 min): 11074.3 cpm
Net uptake of [14C]L-lactate through SfMCT (cpm) (SfMCT; Time 40 min): 8600.33 cpm
Uptake of [14C]L-lactate by SfMCT (cpm) (SfMCT; Time 50 min): 12325 cpm
Net uptake of [14C]L-lactate through SfMCT (cpm) (SfMCT; Time 50 min): 9196.33 cpm
Uptake of [14C]L-lactate by SfMCT (cpm) (SfMCT; Time 60 min): 13920.3 cpm
Net uptake of [14C]L-lactate through SfMCT (cpm) (SfMCT; Time 60 min): 9981.67 cpm
Uptake of [14C]L-lactate by SfMCT (cpm) (SfMCT; Time 75 min): 16014.3 cpm
Net uptake of [14C]L-lactate through SfMCT (cpm) (SfMCT; Time 75 min): 10856.3 cpm
Uptake of [14C]L-lactate by SfMCT (cpm) (SfMCT; Time 90 min): 17840 cpm
Net uptake of [14C]L-lactate through SfMCT (cpm) (SfMCT; Time 90 min): 10528.3 cpm
Uptake of [14C]L-lactate (SfMCT; [L-lactate] 10 µM): 8.303 pmol
Uptake of [14C]L-lactate (SfMCT; [L-lactate] 50 µM): 59.1431 pmol
Uptake of [14C]L-lactate (SfMCT; [L-lactate] 100 µM): 109.881 pmol
Uptake of [14C]L-lactate (SfMCT; [L-lactate] 175 µM): 163.284 pmol
Uptake of [14C]L-lactate (SfMCT; [L-lactate] 250 µM): 201.312 pmol
Uptake of [14C]L-lactate (SfMCT; [L-lactate] 625 µM): 266.195 pmol
